Measurements as given in publication PMC5607274, “An iterative compound screening contest method for identifying target protein inhibitors using the tyrosine-protein kinase Yes” (Scientific Reports, 2017).

Biological target: T1, human recombinant Yes [a.a. 2–543 (end)] (Homo sapiens, UniProt P07947)
T1 construct: human recombinant Yes [a.a; 2–543 (end)]; purchased BPS Bioscience 40488
Assay: ADP-Glo kinase assay, inhibition rates of Yes phosphorylation activity (first and second screening)
Format: biochemical
Conditions: first screening; mean of n = 4 wells; 10 μmol L−1 compound
Procedure, shortened: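 ADP-Glo luminescence measured inhibition of human recombinant Yes (a.a. 2–543) phosphorylation activity. In the first screen, each compound ran in 4 wells and inhibition rates were averaged. The second screen retested hits as compounds dissolved from fresh powder.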

T1 sequence (P07947 2-543): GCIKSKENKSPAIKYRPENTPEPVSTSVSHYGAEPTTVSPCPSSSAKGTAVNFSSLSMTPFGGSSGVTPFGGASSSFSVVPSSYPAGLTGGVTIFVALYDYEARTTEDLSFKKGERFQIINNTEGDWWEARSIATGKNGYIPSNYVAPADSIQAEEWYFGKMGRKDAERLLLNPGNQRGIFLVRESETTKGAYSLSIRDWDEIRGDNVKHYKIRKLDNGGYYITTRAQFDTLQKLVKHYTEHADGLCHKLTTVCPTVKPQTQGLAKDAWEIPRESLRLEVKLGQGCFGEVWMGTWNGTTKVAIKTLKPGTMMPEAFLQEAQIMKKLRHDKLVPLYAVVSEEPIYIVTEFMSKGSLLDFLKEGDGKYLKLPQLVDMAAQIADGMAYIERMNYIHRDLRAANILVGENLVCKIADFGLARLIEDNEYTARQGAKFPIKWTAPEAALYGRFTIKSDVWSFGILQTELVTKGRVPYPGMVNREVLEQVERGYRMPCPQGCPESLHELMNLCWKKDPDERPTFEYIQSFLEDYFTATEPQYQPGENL

SMILES | First screening IR (inhibition rate)
Cc1cnc(C(=O)Nc2ccc3nc(-c4ccc(F)cc4)[nH]c3c2)cn1 [Compound Z651750688] | -2%
Cn1c(=O)n(CCN2CCOCC2)c(=O)c2c1nc1n2CCN1c1ccc(Oc2ccccc2)cc1 [Compound Z223838602] | 49%
COC(=O)Cn1ncc2c(NCCCc3cccc(F)c3)ncnc21 [Compound Z1220626900] | -8%
COc1ccc(Nc2cc3c(nnn3-c3ccc(C)cc3)c3c2C(=O)c2ccccc2C3=O)cc1 [Compound Z56857974] | 2%
COc1cc(/C=N/Nc2nc(-c3ccncc3)nc3ccccc23)ccc1O [Compound Z56841676] | 18%
COc1ccc(/C=C2/CCCc3c2nc2ccccc2c3C(=O)OCC(=O)Nc2sc3c(c2C(=O)Nc2ccc(Cl)cc2)CCCC3)cc1 [Compound Z19394488] | 7%
CN(C)c1nc(N)nc(CSCCOc2ccccc2F)n1 [Compound Z197453168] | 9%
O=C(OCc1nc(-c2cccs2)no1)c1c(F)cccc1F [Compound Z51088101] | 8%
O=C(/C=C/c1ccsc1)NC(c1ccccc1)c1cccs1 (stereo not shown) [Compound Z89582531] | 1%
CC(C)N(CCNC(=O)CCc1nnc2n(Cc3ccc(F)cc3)c(=O)c3ccccc3n12)Cc1ccco1 [Compound Z1169067840] | -10%
Oc1cncc(/C=C/c2nc(-c3ccncc3)no2)c1 [Compound Z1739342675] | 8%
O=S(=O)(N/N=C/c1ccc(N(c2ccccc2)c2ccccc2)cc1)c1ccc(Br)cc1 [Compound Z49646816] | 27%
O=C(CCc1c[nH]c2ccccc12)Nc1ccc(F)c([N+](=O)[O-])c1 [Compound Z32407809] | 4%
COc1ccc(Br)c(CN(C)C(C)C2CCN(C)CC2)c1 (stereo not shown) [Compound Z1682981267] | 2%
COc1cc(/C=C2/CC(C)Cc3c2nc2ccccc2c3C(=O)O)cc(Cl)c1O (stereo not shown) [Compound Z46108144] | 3%
CC(C)c1ccc(C(=O)N2CCN(c3ccc(C#N)cn3)CC2)cc1 [Compound Z319076580] | -2%
O=C(Nc1nc2ccccc2[nH]1)c1cc(-c2ccccc2)n[nH]1 [Compound Z184538526] | 3%
CCn1c(=O)c2c(nc3n(-c4ccc(N(C)C)cc4)c(C)cn23)n(C)c1=O [Compound Z278205390] | 10%
CN(C)S(=O)(=O)c1cccc(S(=O)(=O)c2cccc(S(=O)(=O)N(C)C)c2)c1 [Compound Z56877233] | 7%
O=S1(=O)C=CC(Br)C1 (stereo not shown) [Compound Z56764753] | 3%
CC1CCC(C(C)C)C(OC(=O)CSc2ncnc3ccccc23)C1 (stereo not shown) [Compound Z19316042] | 0%

SMILES | First screening IR (inhibition rate)
O=C(N/N=C/C=C/c1ccco1)c1ccc(-c2ccc(F)cc2)s1 [Compound Z839335172] | 6%
CCN(CC(C)C)c1ccc(S(C)(=O)=O)cc1S(C)(=O)=O [Compound Z666139280] | 7%
Cc1cc(NCc2cn3cccnc3n2)c(C(N)=O)cc1F [Compound Z1430011273] | 12%
O=C(CSc1nnc(-c2cccnc2)n1C1CC1)Nc1nc(-c2ccc(F)cc2)cs1 [Compound Z92534919] | 10%
c1cc(-c2nc3c(c(N4CCCC(N5CCCC5)C4)n2)CCC3)ccn1 (stereo not shown) [Compound Z1070397714] | 56%
CC(=O)c1cccc(OCC(=O)Nc2nc3ccccc3[nH]2)c1 [Compound Z27665121] | -6%
COC1(C)CC(N(C)C(=O)NC2CCCn3nc(C(C)C)nc32)C1(C)C (stereo not shown) [Compound Z1396774495] | -1%
C/C(=C\C(=O)N1CCN(c2cnccn2)CC1)C12CC3CC(CC(C3)C1)C2 [Compound Z850748812] | 12%
Cc1cc(CN2CCSCC2)ccc1NC(=O)c1ccnc(N(C)C)c1 [Compound Z978895402] | 0%
NS(=O)(=O)C1CC=CCC1 (stereo not shown) [Compound Z1517090453] | 1%
CC(Sc1n[nH]c(-c2cccs2)n1)c1nc2ccccc2c(=O)[nH]1 (stereo not shown) [Compound Z19451548] | 2%
CCc1cc(N2CCC(NCc3c(Cl)cccc3N3CCCC3)CC2)ncn1 [Compound Z1549038619] | 0%
O=C(COC(=O)c1ccccc1NS(=O)(=O)c1ccc(F)cc1)NC1CCCc2ccccc21 (stereo not shown) [Compound Z18712040] | -7%
O=S1(=O)CCC(N2CCN(Cc3cc(Cl)cc(C4CCCCC4)c3O)CC2)C1 (stereo not shown) [Compound Z827167912] | 7%
Cc1ccc(S(=O)(=O)N(C)S(=O)(=O)c2ccc(C#N)cc2)cc1 [Compound Z45549760] | 3%
O=C(Cc1csc(NC(=O)c2ccccc2F)n1)NCC1Cc2ccccc2O1 (stereo not shown) [Compound Z420283836] | -5%
CC(=O)NC12CC3CC(C1)CC(C(=O)Oc1ccc(N(C)S(=O)(=O)c4cc(C)ccc4C)cc1)(C3)C2 [Compound Z29631809] | 1%
O=C(Cc1csc(Cc2ccccc2)n1)Nc1cccc(Cn2ccnc2)c1 [Compound Z383523130] | 46%
CC1(NC(=O)OC(C)(C)C)CCN(C(=O)c2cc3c(cc2O)CCCC3)CC1 [Compound Z1769013356] | -20%
Cc1cc(NC(=O)c2cc3c(F)cccc3s2)n(CCC#N)n1 [Compound Z826713980] | -5%
O=C(C1CC1)N1CCCCCC1C1CCN(Cc2nnc(C3CC3)o2)CC1 (stereo not shown) [Compound Z1170432033] | 7%

SMILES | First screening IR (inhibition rate)
Cn1c(=O)[nH]c(=O)c2c1nc(CN1CCN(c3cccc(Cl)c3)CC1)n2CCCc1ccccc1 [Compound Z238883342] | -1%
CCC1CCCCN1S(=O)(=O)c1ccc(S(C)(=O)=O)cc1 (stereo not shown) [Compound Z300098278] | 51%
Cc1nnc(NC(=O)C2CC(c3cccc(F)c3)=NO2)s1 (stereo not shown) [Compound Z381180216] | -5%
CCN(c1ccc(-c2csc(Nc3ccc(OC)cc3)n2)cc1)S(C)(=O)=O [Compound Z64779311] | -4%
Cc1sc2nc(CN3CCC(C)CC3)nc(N3CCN(C(=O)c4ccccc4O)CC3)c2c1C [Compound Z381659312] | -12%
CCc1cccc(CC)c1NC(=O)COC(=O)CC1c2ccccc2CCN1S(=O)(=O)c1ccc(F)cc1 (stereo not shown) [Compound Z56803956] | 27%
Cc1cc(NC(=O)/C=C/c2csc(C)n2)n(CCC#N)n1 [Compound Z826713788] | -15%
COc1cc(NC(=O)Cc2c(C)[nH]c3ccccc23)c(C(N)=O)cc1OC [Compound Z917537988] | -25%
O=S1(=O)CCC(S(=O)(=O)NC2CCCCCC2)CC1 [Compound Z968739862] | 50%
Cc1ccc(-c2nn3c(=O)c4c5c(sc4nc3c3ccccc23)CCCC5)cc1 [Compound Z55163996] | 4%
COc1ccccc1NC(=O)c1ccc(NC(=O)COc2ccc(-c3ccccc3)cc2)cc1 [Compound Z19829052] | 3%
Cn1c(C(=O)Nc2ccc(NC(=O)c3ccco3)c(Cl)c2)cc2ccccc21 [Compound Z751335838] | 55%
CCOC(=O)c1cc(-c2ccc3c(c2)OCCO3)nc2c1c(C)nn2CCC#N [Compound Z56631515] | 17%
CC(c1ccccc1)n1c(NC(=O)c2ccccc2)c(S(=O)(=O)c2ccccc2)c2nc3ccccc3nc21 (stereo not shown) [Compound Z56877281] | -3%
CC(=O)c1c[nH]c(C(=O)NCCc2ccc(-c3csc(C)n3)s2)c1 [Compound Z165050208] | 3%
O=C(c1ccoc1)N1CCC(NCc2cn[nH]c2-c2ccc(F)cc2)CC1 [Compound Z401874244] | 36%
Cc1cc(=O)c(C(=O)N2CCC(C(=O)N3CCCCCC3)CC2)nn1-c1ccccc1F [Compound Z117548264] | 2%
CC1CCC(NS(=O)(=O)c2ccc(N3CCCC(c4nnc5ccccn45)C3)c([N+](=O)[O-])c2)CC1 (stereo not shown) [Compound Z166704886] | 5%
COCCNC(=O)CN1CCN(c2nc(-c3cccnc3)nc3scc(-c4ccccc4)c23)CC1 [Compound Z128012326] | 9%
CCN(C1CCS(=O)(=O)C1)S(=O)(=O)c1ccc(Br)cc1 (stereo not shown) [Compound Z45467079] | 4%
Cc1cc(C)n(-c2nc(-c3cccnc3)nc3ccccc23)n1 [Compound Z56839033] | 12%

Same assay, conditions: second screening, dissolved from fresh powder; n = 4; 10 μmol L−1 compound

SMILES | Second screening IR (inhibition rate)
Cn1c(=O)n(CCN2CCOCC2)c(=O)c2c1nc1n2CCN1c1ccc(Oc2ccccc2)cc1 [Compound Z223838602] | -4%
